Laboratory results reported in PMC3907537, “Evaluation of the Endothelin Receptor Antagonists Ambrisentan, Bosentan, Macitentan, and Sitaxsentan as Hepatobiliary Transporter Inhibitors and Substrates in Sandwich-Cultured Human Hepatocytes” (PLoS ONE, 2014).
“And” between values parts separate entries of the source, which are not always exact repeats. Equal values may be shown once.

Experiments:
[1] = tested on: sandwich-cultured human hepatocytes; test: Hepatic disposition (intracellular accumulation) of ERAs in sandwich-cultured human hepatocytes; type: in vitro ADME; settings: sandwich-cultured human hepatocytes, 1, 10 and 100 µM, 10 min, n = 3 donors
Method: Sandwich-cultured human hepatocytes were obtained from Celsis/IVT (Baltimore, MD) or Life Technologies (Durham, NC). Donors were male (n = 3) and female (n = 1) between the ages of 31 and 62 years old. Hepatic uptake, biliary excretion and in vitro biliary clearance (Clb) were determined using the B-CLEAR® hepatocyte sandwich culture model as described by Liu et al., 1999 [34]. In this system, hepatocytes form functional bile canalicular networks while maintaining the expression and function of key uptake and efflux transporters. The canalicular system of bile pockets remains separate from the cellular culture media due to tight junctions between cells. The integrity of these tight junctions is maintained in the presence of calcium (Plus (+) buffer) while in the absence of calcium (Minus (−) buffer), these tight junctions open and release the contents of the canalicular network into the media.
Incubation solutions containing ERA (1, 10 and 100 µM) were prepared in Plus (+) buffer. Cell culture medium was removed from the wells and the cells were washed twice with Plus (+) or Minus (−) buffer. The wash solutions were then removed and replaced with fresh Plus (+) or Minus (−) buffer. The cells were conditioned for 10 min at 37°C. After the 10 min exposure, the buffer solutions were removed and replaced with the incubation solutions and incubated for 10 min at 37°C. Following 10 min incubation, the incubation solutions were removed and the cells were then washed three times with ice-cold Plus (+) Buffer. The plates were frozen at −80°C until processed for bioanalysis.
Study samples were stored in their original 24-well plates at −80°C until prepared for analysis. A volume of 500 µL of cell lysis solution (70∶30 methanol:water) containing 25 nM internal standard was added to each well and mixed for 20 min of mixing. […] Prepared samples were filtered and analyzed by LC-MS/MS using a Shimadzu binary HPLC system (Columbia, MD) and tandem mass spectrometry using Thermo Electron TSQ® Quantum Discovery MAX™ (Waltham, MA) with an Ion Max ESI source operating in negative ion electrospray ionization mode. Results for unknowns and QCs were calculated using a standard curve based on an internal standard processing method.
Data calculations were performed using Microsoft Excel, 2010 with all values reported as mean ± standard deviation (SD). […] All mass values were normalized to mg protein by taking the average protein mass in the taurocholate plate determined using a BCA protein assay (Pierce Biotechnology, Rockford, IL). Cellular accumulation determined in Minus (−) buffer (Accumulation Minus (−) Buffer) represents the total mass of analyte inside the hepatocyte at the end of the incubation time period. […]

NTCP = target: T1, NTCP (Homo sapiens, UniProt Q14973); test: NTCP inhibition, 3H taurocholate uptake in transfected CHO cells; type: cell-based; settings: mean ± SD of 3 independent studies in duplicate, tested 0.14–100 µM
T1 construct: host or cells: CHO
T1 sequence (Q14973 1-349): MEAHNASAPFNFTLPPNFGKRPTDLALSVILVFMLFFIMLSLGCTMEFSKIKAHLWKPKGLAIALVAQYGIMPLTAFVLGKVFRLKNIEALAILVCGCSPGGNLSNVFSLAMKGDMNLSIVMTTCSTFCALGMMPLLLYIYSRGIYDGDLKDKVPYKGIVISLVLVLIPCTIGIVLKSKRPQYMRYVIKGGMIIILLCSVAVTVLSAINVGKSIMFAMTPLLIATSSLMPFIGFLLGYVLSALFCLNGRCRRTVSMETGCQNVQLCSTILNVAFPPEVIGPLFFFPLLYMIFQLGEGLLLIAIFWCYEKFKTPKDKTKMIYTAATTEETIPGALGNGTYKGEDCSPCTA
Excerpt: Chinese Hamster Ovary (CHO) cells were obtained from Professor B. Stieger’s laboratory at University of Zurich, Zurich, Switzerland. Madin-Darby Canine Kidney strain II (MDCKII) cells were obtained from Nederlands Kanker Instituut (NKI), Amsterdam, Netherlands. NTCP-CHO cells, BSEP and MRP2 membrane vesicles were developed and validated at Solvo Biotechnology, Budaors, Hungary.
CHO cells, either wild type or transfected with the genes encoding human NTCP, OATP1B1 and OATP1B3, were maintained in Dulbecco’s Modification of Eagle’s Medium (DMEM) containing 1,000 mg/L D-glucose, L-glutamine, 25 mM HEPES buffer, 110 mg/L sodium pyruvate, 1% Penicillin/Streptomycin, 10% fetal bovine serum (FBS), 0.05 mg/mL L proline and 0.5 mg/mL of geneticin G-418. Cells were maintained in incubators set at 37°C, 90% humidity and 5% CO2. OATP1B1 and OATP1B3 over-expressing cells were seeded in BioCoat Poly-D-Lysine coated 96-well black cell culture plates with clear bottoms at a density of 1×10^5 cells/well. Sodium butyrate (10 mM) was added to the OATP1B1 and OATP1B3 cells once seeded to increase the protein expression level and the cells were grown to confluence overnight. The assay buffer contained 142 mM NaCl, 5 mM KCl, 1 mM KH2PO4, 1.2 mM MgSO4, 1.5 mM CaCl2, 5 mM Glucose and 12.5 mM HEPES (pH 7.4). After removal of the media and before adding test compounds, the cells were washed twice with 37°C assay buffer followed by a 0.5 h pre-incubation with assay buffer. […] Wells were analyzed for Fluo 3 fluorescence at an excitation of 485 nm and emission of 530 nm. Inhibition of NTCP was studied using similar conditions to those described for OATP1B1 and OATP1B3 except that inhibition of the uptake ^3H taurocholate into transfected CHO cells was monitored using radioactive scintillation counting.
All assays were performed in duplicate. […] IC50 values were calculated using non-linear fitting of % inhibition versus concentration to a sigmoidal curve with a variable Hill Coefficient using GraphPad Prism 5 (GraphPad Software Inc., San Diego, CA).

Row | hepatocyte accumulation relative to the extracellular test concentration [1] | IC50 (NTCP) | hepatocyte accumulation relative to the extracellular test concentration ([1]; listed as Macitentan) | SMILES
1 | ~40 x | – | – | Cc1cc2c(cc1CC(=O)c1sccc1S(=O)(=O)Nc1onc(C)c1Cl)OCO2 [sitaxsentan]
2 | ~20 x | 36 µM and 35.6 µM | – | COc1ccccc1Oc1c(NS(=O)(=O)c2ccc(C(C)(C)C)cc2)nc(-c2ncccn2)nc1OCCO [bosentan]
3 | – | > 100 µM | – | COC(c1ccccc1)(c1ccccc1)[C@H](Oc1nc(C)cc(C)n1)C(=O)O [ambrisentan]
4 | > 100 x | 10 µM and 9.8 µM | ~100 x | CCCNS(=O)(=O)Nc1ncnc(OCCOc2ncc(Br)cn2)c1-c1ccc(Br)cc1 [macitentan]
